This is an account of results in ChEMBL document CHEMBL6127073, “Utilizing artificial intelligence for precision exploration of N protein targeting phenanthridine sars-cov-2 inhibitors: A novel approach” (Eur J Med Chem, 2024).

The target in data set [1] is T1, Nucleoprotein (Severe acute respiratory syndrome coronavirus 2, UniProt P0DTC9). As to the kind of experiment: Binding affinity to SARS-CoV-2 N-pro assessed as dissociation constant by SPR analysis. Background: In SPR one partner is held on a chip, and binding of the other changes the refractive index at the surface.
In data set [2] the target is T1, Nucleoprotein. In words: Binding affinity to wild type SARS-CoV-2 N-pro assessed as dissociation constant by MST analysis.
Data set [3] concerns SARS-CoV-2. In words: Antiviral activity against SARS-CoV-2 107 infected in African green monkey Vero E6 cells assessed as increase in cell survival rate at 50 uM pre-infected with virus followed by compound addition for 2 hrs and measured after 72 hrs by MTT assay. It is filed as functional, organism-based. Conditions: Severe acute respiratory syndrome coronavirus 2, time 74.0 hrs. On the technique in general: Tetrazolium assays rely on reduction of a dye to a coloured formazan, in cell work by metabolically active cells.

A short description of data set [4]: Cytotoxicity against African green monkey Vero E6 cells after 72 hrs by CCK8 assay. It is filed as toxicity, cell-based, Vero C1008. The conditions noted are these: chlorocebus sabaeus.
Data set [5] deals with Nucleoprotein (Severe acute respiratory syndrome coronavirus 2) (UniProt P0DTC9). In words: Inhibition of ssRNA binding to SARS-CoV-2 N-pro at 100 uM by MST analysis relative to control.
The target in data set [6] is T1, Nucleoprotein. In words: Binding affinity to SARS-CoV-2 N-pro assessed as dissociation constant by MST analysis.
In data set [7] the test system is SARS-CoV-2. As to the kind of experiment: Antiviral activity against SARS-CoV-2 107 infected in African green monkey Vero E6 cells assessed as inhibition of viral replication pre-infected with virus followed by compound addition and measured after 72 hrs by inverted microscopic analysis. The format is functional, organism-based. Conditions: Severe acute respiratory syndrome coronavirus 2, 107, Vero C1008, 72 h.

The nature of data set [8]: Selectivity index, ratio of CC50 for cytotoxicity against African green monkey Vero E6 cells to EC50 for antiviral activity against SARS-CoV-2 107 infected in African green monkey Vero E6 cells. It is filed as toxicity, cell-based. The conditions noted are these: read-out: Ratio CC50/EC50.
Data set [9] deals with T1, Nucleoprotein. As to the kind of experiment: Binding affinity to SARS-CoV-2 N-pro assessed as dissociation constant in presence of ssRNA by MST analysis.
In data set [10] the test system is SARS-CoV-2. In words: Antiviral activity against SARS-CoV-2 107 infected in African green monkey Vero E6 cells assessed as inhibition of virus induced cytopathic effect by neutral red staining based analysis. It is filed as functional, organism-based. The conditions noted are these: Severe acute respiratory syndrome coronavirus 2, time 74.0 hrs.

The structures appear in SMILES notation. Activity calls are given as the source filed them. The calls are words filed in the database; no cut-off is given here. Bounds are passed on as bounds.

Usually Kd stands for a measure of binding affinity in units of concentration. Take `CCn1c(=O)c2cc(OC)c(OC)cc2c2cccc(/C=N/c3nc[nH]n3)c21`: on Nucleoprotein [1], the Kd was 63.7 µM.

Consider `CCN1Cc2cc(OC)c(OC)cc2-c2cccc(NCc3csc4ccc(Cl)cc34)c21`, for which the dissociation constant (Kd) on Nucleoprotein [1] turned out to be 97.7 µM.

Consider `CCN1Cc2cc(OC)c(OC)cc2-c2cccc(NC(=O)Cc3ccccc3)c21`, for which the dissociation constant (Kd) at Nucleoprotein [1] was found to be 5.31 µM.

For the compound `CCn1c(=O)c2cc(OC)c(OC)cc2c2cccc(NS(=O)(=O)c3ccc(Cl)cc3)c21`, the Kd on Nucleoprotein [1] came out at 5.27 µM.

With `CCn1c(=O)c2cc(OC)c(OC)cc2c2cccc(/C=N/C3C=CNN3)c21` (stereo unspecified), the equilibrium dissociation constant (Kd) on Nucleoprotein [1] worked out at 2.53 µM.

On to `CCN1Cc2cc(OC)c(OC)cc2-c2cccc(NC(=O)c3cc([N+](=O)[O-])cc([N+](=O)[O-])c3)c21`, for which the dissociation constant (Kd) on Nucleoprotein [1] worked out at 37.9 µM.

In the case of `CCN1Cc2cc(OC)c(OC)cc2-c2cccc(Nc3ccc4c(c3)oc3ccccc34)c21`, on Nucleoprotein [1], the equilibrium dissociation constant (Kd) is 44.1 µM.

With `CCn1c(=O)c2cc(OC)c(OC)cc2c2cccc(C3C4=C(CCCC4=O)N(c4ccccc4)C4=C3C(=O)CCC4)c21`, the Kd at Nucleoprotein [1] was determined as 168 µM.

`CCN1Cc2cc(OC)c(OC)cc2-c2cccc(NCc3ccc(C4(C(F)(F)F)N=N4)cc3)c21`: at Nucleoprotein [1], the equilibrium dissociation constant (Kd) was determined as 37 µM.

`CCn1c(=O)c2cc(OC)c(OC)cc2c2cccc(/N=C/c3c4ccccc4cc4ccccc34)c21`: on Nucleoprotein [1], the Kd was 9.71 µM.

A word on the CC50: it is the concentration at which the toxic effect on the cells reaches its halfway point. In general, inhibition refers to the drop in the measured response relative to a control, in per cent. As a reminder, the EC50 is the concentration giving half of the maximal effect. On to `CCN1Cc2cc(OC)c(OC)cc2-c2cccc(Nc3ncnc4c3nnn4Cc3ccccc3)c21`, for which the Kd was 5.4 µM on Nucleoprotein [2], 0.73 µM at Nucleoprotein [6], 83.7 µM at Nucleoprotein [9] and 0.35 µM at Nucleoprotein [1]. Also, the result in the data set on SARS-CoV-2 [3] and in the data set with SARS-CoV-2 [10] was Active. This compound yielded a CC50 at 72 h in [4] above 200 µM. Besides, the inhibition in data set [5] is 100%. For the same compound, the EC50 in the data set with SARS-CoV-2 [7] worked out at 11.3 µM. In addition, the selectivity ratio in [8] is above 17.7.

Regarding `CCN1Cc2cc(OC)c(OC)cc2-c2cccc(NC(=O)Nc3cccc4c3N(CC)Cc3cc(OC)c(OC)cc3-4)c21`, at Nucleoprotein [1], the dissociation constant (Kd) was 4.58 µM.
